According to paper PMC7156458, “Synthetic biology based construction of biological activity-related library of fungal decalin-containing diterpenoid pyrones” (Nature Communications, 2020):

Target: Aβ42 (Homo sapiens, UniProt P05067)
Test: Th-T (thioflavin-T) assay of Aβ42 aggregation
Format: biochemical
Conditions: for Th-T assay plate reading, mean of three wells (Supplementary Fig. 47): source data, Ab alone and No Ab as controls

Sequence of Aβ42 (P05067 672-713): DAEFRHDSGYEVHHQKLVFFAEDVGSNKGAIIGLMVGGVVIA

## C=C1CC[C@H]2[C@]3(C)C[C@H](C=C(C)C)O[C@H]3CC[C@]2(C)[C@@H]1Cc1c(O)c(C)c(C)oc1=O [Compound 6, subglutinol B]
Aβ42 aggregation time course, reading M117
  Th-T fluorescence, mean of three wells: 3.0425
Aβ42 aggregation time course, reading M118
  Th-T fluorescence, mean of three wells: 3.0715
Aβ42 aggregation time course, reading M119
  Th-T fluorescence, mean of three wells: 3.036
Aβ42 aggregation time course, reading M120
  Th-T fluorescence, mean of three wells: 3.042
Aβ42 aggregation time course, reading M121
  Th-T fluorescence, mean of three wells: 3.063
Aβ42 aggregation time course, reading M122
  Th-T fluorescence, mean of three wells: 3.055
Aβ42 aggregation time course, reading M123
  Th-T fluorescence, mean of three wells: 3.062
Aβ42 aggregation time course, reading M124
  Th-T fluorescence, mean of three wells: 3.061
Aβ42 aggregation time course, reading M125
  Th-T fluorescence, mean of three wells: 3.081
Aβ42 aggregation time course, reading M126
  Th-T fluorescence, mean of three wells: 3.018
Aβ42 aggregation time course, reading M127
  Th-T fluorescence, mean of three wells: 3.038
Aβ42 aggregation time course, reading M128
  Th-T fluorescence, mean of three wells: 3.027
Aβ42 aggregation time course, reading M129
  Th-T fluorescence, mean of three wells: 3.02
Aβ42 aggregation time course, reading M130
  Th-T fluorescence, mean of three wells: 3.02
Aβ42 aggregation time course, reading M131
  Th-T fluorescence, mean of three wells: 3.032
Aβ42 aggregation time course, reading M132
  Th-T fluorescence, mean of three wells: 3.01
Aβ42 aggregation time course, reading M133
  Th-T fluorescence, mean of three wells: 3.061
Aβ42 aggregation time course, reading M134
  Th-T fluorescence, mean of three wells: 3.045
Aβ42 aggregation time course, reading M135
  Th-T fluorescence, mean of three wells: 3.053
Aβ42 aggregation time course, reading M136
  Th-T fluorescence, mean of three wells: 3.034
Supplementary Fig. 47, reading M137
  Th-T fluorescence, mean of three wells: 3.021
Supplementary Fig. 47, reading M138
  Th-T fluorescence, mean of three wells: 3.036
Supplementary Fig. 47, reading M139
  Th-T fluorescence, mean of three wells: 3.036
Supplementary Fig. 47, reading M140
  Th-T fluorescence, mean of three wells: 3.0121
Supplementary Fig. 47, reading M141
  Th-T fluorescence, mean of three wells: 3.01
Supplementary Fig. 47, reading M142
  Th-T fluorescence, mean of three wells: 2.999
Supplementary Fig. 47, reading M143
  Th-T fluorescence, mean of three wells: 3.017
Supplementary Fig. 47, reading M144
  Th-T fluorescence, mean of three wells: 3.0125
Supplementary Fig. 47, reading M145
  Th-T fluorescence, mean of three wells: 3.0288
Supplementary Fig. 47 source data, measurement M37 of time course
  Th-T fluorescence, mean of three wells: 3.017
Supplementary Fig. 47 source data, measurement M38 of time course
  Th-T fluorescence, mean of three wells: 3.04
Supplementary Fig. 47 source data, measurement M39 of time course
  Th-T fluorescence, mean of three wells: 3.05
Supplementary Fig. 47 source data, measurement M40 of time course
  Th-T fluorescence, mean of three wells: 3.045
Supplementary Fig. 47 source data, measurement M41 of time course
  Th-T fluorescence, mean of three wells: 3.085
Supplementary Fig. 47 source data, measurement M42 of time course
  Th-T fluorescence, mean of three wells: 3.072
Supplementary Fig. 47 source data, measurement M43 of time course
  Th-T fluorescence, mean of three wells: 3.079
Supplementary Fig. 47 source data, measurement M44 of time course
  Th-T fluorescence, mean of three wells: 3.068
Supplementary Fig. 47 source data, measurement M45 of time course
  Th-T fluorescence, mean of three wells: 3.111
Supplementary Fig. 47 source data, measurement M46 of time course
  Th-T fluorescence, mean of three wells: 3.079
Supplementary Fig. 47 source data, measurement M47 of time course
  Th-T fluorescence, mean of three wells: 3.097
Supplementary Fig. 47 source data, measurement M48 of time course
  Th-T fluorescence, mean of three wells: 3.117
Supplementary Fig. 47 source data, measurement M49 of time course
  Th-T fluorescence, mean of three wells: 3.11
Supplementary Fig. 47 source data, measurement M50 of time course
  Th-T fluorescence, mean of three wells: 3.114
Supplementary Fig. 47 source data, measurement M51 of time course
  Th-T fluorescence, mean of three wells: 3.119
Supplementary Fig. 47 source data, measurement M52 of time course
  Th-T fluorescence, mean of three wells: 3.113
Supplementary Fig. 47 source data, measurement M53 of time course
  Th-T fluorescence, mean of three wells: 3.12
Supplementary Fig. 47 source data, measurement M54 of time course
  Th-T fluorescence, mean of three wells: 3.1191
Supplementary Fig. 47 source data, measurement M55 of time course
  Th-T fluorescence, mean of three wells: 3.1238
Supplementary Fig. 47 source data, measurement M56 of time course
  Th-T fluorescence, mean of three wells: 3.106
Measurement M1
  Th-T assay plate reading, mean of three wells (Supplementary Fig. 47): 0.3106
Measurement M2
  Th-T assay plate reading, mean of three wells (Supplementary Fig. 47): 0.3077
Measurement M3
  Th-T assay plate reading, mean of three wells (Supplementary Fig. 47): 0.3313
Measurement M4
  Th-T assay plate reading, mean of three wells (Supplementary Fig. 47): 0.3664
Measurement M5
  Th-T assay plate reading, mean of three wells (Supplementary Fig. 47): 0.4514
Measurement M6
  Th-T assay plate reading, mean of three wells (Supplementary Fig. 47): 0.4846
Measurement M7
  Th-T assay plate reading, mean of three wells (Supplementary Fig. 47): 0.512
Measurement M8
  Th-T assay plate reading, mean of three wells (Supplementary Fig. 47): 0.5981
Measurement M9
  Th-T assay plate reading, mean of three wells (Supplementary Fig. 47): 0.6456
Measurement M10
  Th-T assay plate reading, mean of three wells (Supplementary Fig. 47): 0.6881
Measurement M11
  Th-T assay plate reading, mean of three wells (Supplementary Fig. 47): 0.7275
Measurement M12
  Th-T assay plate reading, mean of three wells (Supplementary Fig. 47): 0.7567
Measurement M13
  Th-T assay plate reading, mean of three wells (Supplementary Fig. 47): 0.7872
Measurement M14
  Th-T assay plate reading, mean of three wells (Supplementary Fig. 47): 0.8218
Measurement M15
  Th-T assay plate reading, mean of three wells (Supplementary Fig. 47): 0.8797
Measurement M16
  Th-T assay plate reading, mean of three wells (Supplementary Fig. 47): 0.9731
Reading M17, Supplementary Fig. 47 source data
  Th-T fluorescence, mean of three wells: 1.192
Reading M18, Supplementary Fig. 47 source data
  Th-T fluorescence, mean of three wells: 1.512
Reading M19, Supplementary Fig. 47 source data
  Th-T fluorescence, mean of three wells: 1.858
Reading M20, Supplementary Fig. 47 source data
  Th-T fluorescence, mean of three wells: 2.193
Reading M21, Supplementary Fig. 47 source data
  Th-T fluorescence, mean of three wells: 2.479
Reading M22, Supplementary Fig. 47 source data
  Th-T fluorescence, mean of three wells: 2.615
Reading M23, Supplementary Fig. 47 source data
  Th-T fluorescence, mean of three wells: 2.7089
Reading M24, Supplementary Fig. 47 source data
  Th-T fluorescence, mean of three wells: 2.736
Reading M25, Supplementary Fig. 47 source data
  Th-T fluorescence, mean of three wells: 2.775
Reading M26, Supplementary Fig. 47 source data
  Th-T fluorescence, mean of three wells: 2.797
Reading M27, Supplementary Fig. 47 source data
  Th-T fluorescence, mean of three wells: 2.826
Reading M28, Supplementary Fig. 47 source data
  Th-T fluorescence, mean of three wells: 2.834
Reading M29, Supplementary Fig. 47 source data
  Th-T fluorescence, mean of three wells: 2.861
Reading M30, Supplementary Fig. 47 source data
  Th-T fluorescence, mean of three wells: 2.901
Reading M31, Supplementary Fig. 47 source data
  Th-T fluorescence, mean of three wells: 2.9009
Reading M32, Supplementary Fig. 47 source data
  Th-T fluorescence, mean of three wells: 2.941
Reading M33, Supplementary Fig. 47 source data
  Th-T fluorescence, mean of three wells: 2.954
Reading M34, Supplementary Fig. 47 source data
  Th-T fluorescence, mean of three wells: 2.9825
Reading M35, Supplementary Fig. 47 source data
  Th-T fluorescence, mean of three wells: 2.976
Reading M36, Supplementary Fig. 47 source data
  Th-T fluorescence, mean of three wells: 3.001
Time course, reading M57
  Th-T fluorescence, mean of three wells: 3.126
Time course, reading M58
  Th-T fluorescence, mean of three wells: 3.154
Time course, reading M59
  Th-T fluorescence, mean of three wells: 3.098
Time course, reading M60
  Th-T fluorescence, mean of three wells: 3.135
Time course, reading M61
  Th-T fluorescence, mean of three wells: 3.131
Time course, reading M62
  Th-T fluorescence, mean of three wells: 3.132
Time course, reading M63
  Th-T fluorescence, mean of three wells: 3.122
Time course, reading M64
  Th-T fluorescence, mean of three wells: 3.115
Time course, reading M65
  Th-T fluorescence, mean of three wells: 3.114
Time course, reading M66
  Th-T fluorescence, mean of three wells: 3.129
Time course, reading M67
  Th-T fluorescence, mean of three wells: 3.159
time-course reading M97, Supplementary Fig. 47 source data
  Th-T fluorescence, mean of three wells: 3.103
time-course reading M98, Supplementary Fig. 47 source data
  Th-T fluorescence, mean of three wells: 3.123
time-course reading M99, Supplementary Fig. 47 source data
  Th-T fluorescence, mean of three wells: 3.102
time-course reading M100, Supplementary Fig. 47 source data
  Th-T fluorescence, mean of three wells: 3.074
time-course reading M101, Supplementary Fig. 47 source data
  Th-T fluorescence, mean of three wells: 3.118
time-course reading M102, Supplementary Fig. 47 source data
  Th-T fluorescence, mean of three wells: 3.1
time-course reading M103, Supplementary Fig. 47 source data
  Th-T fluorescence, mean of three wells: 3.088
time-course reading M104, Supplementary Fig. 47 source data
  Th-T fluorescence, mean of three wells: 3.101
time-course reading M105, Supplementary Fig. 47 source data
  Th-T fluorescence, mean of three wells: 3.114
time-course reading M106, Supplementary Fig. 47 source data
  Th-T fluorescence, mean of three wells: 3.076
time-course reading M107, Supplementary Fig. 47 source data
  Th-T fluorescence, mean of three wells: 3.094
time-course reading M108, Supplementary Fig. 47 source data
  Th-T fluorescence, mean of three wells: 3.063
time-course reading M109, Supplementary Fig. 47 source data
  Th-T fluorescence, mean of three wells: 3.057
time-course reading M110, Supplementary Fig. 47 source data
  Th-T fluorescence, mean of three wells: 3.049
time-course reading M111, Supplementary Fig. 47 source data
  Th-T fluorescence, mean of three wells: 3.101
time-course reading M112, Supplementary Fig. 47 source data
  Th-T fluorescence, mean of three wells: 3.097
time-course reading M113, Supplementary Fig. 47 source data
  Th-T fluorescence, mean of three wells: 3.03
time-course reading M114, Supplementary Fig. 47 source data
  Th-T fluorescence, mean of three wells: 3.07
time-course reading M115, Supplementary Fig. 47 source data
  Th-T fluorescence, mean of three wells: 3.098
time-course reading M116, Supplementary Fig. 47 source data
  Th-T fluorescence, mean of three wells: 3.06
